Experimental data reported in US10449156B2, “Controlled release system including a gas or volatile encapsulated in a polymeric support and a matrix system, a method of preparing the system, and their use” (priority 2014, dated 2019).

Columns and labels:
Botrytis cinerea spores = test: Botrytis cinerea spore (conidia) germination assay; assay type: cell-based; conditions: pure PEA; 14 hours at 4° C.; absorbance 570 nm
Procedure: In this point, the PEA volatile compound effect was tested in B.c. spores germination. The assay consisted in inoculate B.c. spores in 100 μL of malt yeast nutritive media (ML, 0.3% malt and 0.2% yeast extract), using 40 μL of a B.c. spore suspension with a 10^5 spores/mL concentration. Resuspended spores in ML media were transferred to sterile multiwall plates (140 μL/well) and then these plates were put in a hermetic and sealed container during a definite time, in dark and at 4° C. The necessary time to detect maximum germination was experimentally determined by conducting a germination kinetic assay for each B.c. strain. Measurements were done every 2 hours up until 16 hours, thus finding the maximum germination between 14 and 16 hours. The methodology used in the laboratory consisted in a spore fixation/staining process in each well, using trichloroacetic acid and sulphododamyne B, that allowed for a direct correlation between the obtained absorbance values (at 570 nm) with germinated spore number. The first experimental group was assayed without volatile compounds and was used as control (n=4), the experiment was done in sealed hermetic containers at 4° C. for 14 hours (100% of spore germination).

Botrytis cinerea = Botrytis cinerea radial growth bioassay with volatile compounds, no direct contact; assay type: cell-based; conditions: for effect on B.c. radial growth: pure compound 6, 30 and 61 μL, four strains, PDA
Procedure: PHBV and PEA microparticle synthesis was done by double emulsion/evaporation. Experimentally, 15 mg of PEA were added to 50 mg/mL PHBV solution in dichloromethane, and then 30 μL of distilled water. This mixture was emulsified with a homogenizer at 35,000 rpm during 30 seconds. To this emulsion, a 5% w/v polyvinyl alcohol was added, and it was homogenized at 35.000 rpm for 30 seconds. The result of this double emulsion was put in an orbital shaker for 12 hours at 100 rpm. Once the solvent evaporated, the microparticles were isolated by centrifugation, washed with distilled water and lyophilized. Subsequently, the assays described below were done.
The experimental model consisted in testing in vitro both the pure and microencapsulated phenylethylalcohol (PEA) volatile compound effect in B.c. The reporting parameter was radial growth and the volatile compound doses were determined with in vitro assays (bioassays). To do this, four different Botrytis strains were exposed to the pure compound, but without direct contact between compound and microorganism.
Bioassays were done in hermetic containers during 6 days at 4° C. (simulating storage conditions). It was previously determined that, for all the strains in study, they were able to cover almost completely the maximum container area (33 mm diameter), in 6 days. The hermetic container was assembled in such a way that there is no physical contact between the evaluated compounds and B.c, in any circumstances.
Radial growth was quantified in three independent experimental groups, which were assayed using potato dextrose agar (PDA) as nutritive support and, after the established culture conditions, initial inoculum growth diameter was determined as 7 mm (disk with actively growing B.c. using PDA as support). The first group was assayed in the container, in absence of a volatile compound and was used as control group (n=4). The second group was assayed challenging the B.c. inoculum with different PEA quantities (6, 30 y 61 μL), separately, with the same culture conditions (n=4). Finally, the third group was assayed like the second group, but with PHBV microencapsulated PEA in defined concentrations (n=2).

| SMILES | effect on Botrytis conidia germination (Botrytis cinerea spores) | effect on B.c. radial growth, statistics (ANOVA, TUKEY, p<0.05) (Botrytis cinerea; 30 and 61 μL doses, all strains, 6 days at 4° C.) | B.c. growth at higher doses (Botrytis cinerea; doses higher than 61 μL, 6 days) | effect on B.c. radial growth (Botrytis cinerea; 6 days at 4° C.) |
| --- | --- | --- | --- | --- |
| OCCc1ccccc1 [PEA, phenylethylalcohol] | does not inhibit Botrytis conidia germination in the same way that it inhibited micellium growth | statistically significant effect in all of the strains | not a measurable growth after 6 days | has an inhibiting effect in all the assayed B.c. strains |
| CCCCCC1CCCC(=O)O1 (stereo not drawn) [d-Lac, delta-decalactone] |  |  |  | does not present a statistically significative effect |
